The text below walks through data of EPA's ToxValDB 9.5 (doi:10.2903/j.efsa.2016.4604).

Values after ≈ are worked out from the molar mass of the structure shown.

One data set deals with Folsomia candida. The note with it: chronic/long-term; duration: 28 days.
The test system of a further data set is Cyprinus carpio. The note with it: acute; duration: 96 hours; mortality.
The next data set has as its system Tagia sp. The note with it: for NOEC: chronic/long-term, duration: 8 weeks.
The next data set relates to Colinus virginianus. As to conditions: acute, oral, mortality.
The test system of another data set is Apis mellifera. As to conditions: acute, mortality.
For another data set, the system named is Daphnia magna. The note with it: chronic/long-term; duration: 21 days; mobility.
In a further data set the test system is Canidae. The note with it: chronic; duration: 1 years; oral; diet; Dog Other; histopathology: nonneoplastic.
Another data set relates to Pimephales promelas. As to conditions: chronic/long-term; duration: 35 days; body weight.
The next data set relates to Typhlodromus pyri. Kind of data set: LR50; higher = less toxic. The note with it: not reported; mortality.

For `CC(=O)c1ccccc1NC(=O)c1c(C)nn(C)c1F`, the values for the NOEC in the data set on Folsomia candida and in the data set with Tagia sp. were 1000 mg/kg and 500 mg/kg, respectively. This compound also yielded an LC50 in the data set with Cyprinus carpio of over 0.799 µg/mL.

`Cc1nn(C)c(F)c1C(=O)Nc1ccccc1C(C)CC(C)(C)O` (configuration not stated): the NOEC with Folsomia candida and in the data set on Tagia sp. was 1000 mg/kg in each case. In the data set on Cyprinus carpio, this compound returned an LC50 of over 15.7 µg/mL.

In the case of `Cc1nn(C)c(F)c1C(=O)Nc1ccccc1C(C)CC(C)C` (configuration not stated) [Penflufen], the NOEC in the data set on Folsomia candida came to 231 mg/kg; in the data set with Daphnia magna, 1.53 mg/L; in the data set on Pimephales promelas it was 23.4 µg/L; with Tagia sp. it was 33 mg/kg. The LD50 is over 1700 mg/kg-day with Colinus virginianus (diet); over 4000 mg/kg-day with Colinus virginianus; over 100 µg/piece in the data set on Apis mellifera (duration: 48 hours, dermal); over 105 µg/piece with Apis mellifera (oral, unspecified); over 2000 mg/kg-day in the data set on Rattus norvegicus (acute, oral, mortality). Besides, the NOAEL with Rattus norvegicus (acute, oral, F, clinical signs) was 50 mg/kg-day; in the data set on Rattus norvegicus (chronic, duration: 2 years, oral, diet, histopathology: nonneoplastic), 4 mg/kg-day; in the data set with Rattus norvegicus (reproduction developmental, M, body weight), 58 mg/kg-day; in the data set on Canidae it was 7.7 mg/kg-day. Moreover, the LC50 was 0.103 µg/mL (≈ 0.325 µM) in the data set on Cyprinus carpio and over 1000 mg/kg in the data set on Tagia sp. (acute, duration: 14 days, mortality). The compound also came in with an LR50 in the data set with Typhlodromus pyri of over 250 g/ha.

As usually defined, the NOAEL is the highest tested level that showed no adverse finding.
